Measurements taken from patent US10973748B2, “Compositions and methods for lightening skin and reducing hyperpigmentation” (Versitech Limited, priority 2016, dated 2021).

Legend:
tyrosinase = biological target: T1, tyrosinase (Mus musculus, UniProt P11344); assay: Cellular tyrosinase activity assay (L-DOPA oxidation in cell lysates); type: cell-based, murine; details: melan-a cells, α-MSH, 72 hrs; 6-CEPN 10 or 20 μM, 8-CEPQ 2.5 or 5 μM
T1 construct: endogenous in cells; host or cells: melan-a cells
T1 sequence (P11344 19-533): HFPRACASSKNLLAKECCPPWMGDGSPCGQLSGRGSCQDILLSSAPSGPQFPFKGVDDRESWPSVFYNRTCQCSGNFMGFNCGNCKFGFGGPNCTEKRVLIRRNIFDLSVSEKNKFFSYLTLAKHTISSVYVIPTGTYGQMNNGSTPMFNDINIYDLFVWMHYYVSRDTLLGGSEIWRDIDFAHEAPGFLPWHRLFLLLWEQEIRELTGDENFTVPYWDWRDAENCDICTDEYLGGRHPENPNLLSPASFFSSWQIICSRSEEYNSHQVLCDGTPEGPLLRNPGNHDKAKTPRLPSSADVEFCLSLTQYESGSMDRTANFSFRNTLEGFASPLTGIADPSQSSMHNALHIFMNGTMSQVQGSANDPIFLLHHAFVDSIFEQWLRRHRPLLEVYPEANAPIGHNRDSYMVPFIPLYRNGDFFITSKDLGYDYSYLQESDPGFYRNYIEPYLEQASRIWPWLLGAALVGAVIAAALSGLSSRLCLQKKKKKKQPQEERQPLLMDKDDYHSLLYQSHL
Method: Cellular tyrosinase activity was determined by measuring the oxidation of L-3,4-dihydroxyphenylalanine (L-DOPA) to dopachrome in cell lysates. Melan-a cells (1.5×10^5 cells/well) were plated in 1 mL of culture medium in a 24-well multidishes for at least 24 hrs prior to use. The cells were treated with α-MSH (1 μM) alone or with α-MSH plus different concentrations of testing agents for 72 hrs. The cells were washed with cold PBS and lysed in 900 μL of PBS with 1% Triton X-100. After being freeze-thawed at −80° C. for 30 min followed by 25° C. for 30 min, 100 μL of 10 mM L-DOPA was then added to each well. Following incubation at 37° C. for 1 hr, the absorbance of the agents was measured at 490 nm using Victor X4 Multilabel Plate Reader (PerkinElmer, Mass., USA).

[1] = test system: tyrosinase-related protein-1 (TRP1); assay: Western blotting of TRP-1 protein level in melan-a cells; type: cell-based, murine; details: α-MSH, 72 hrs, 20 μM
Method: (§1) Melan-a cells (3×10^5 cells/well) were seeded in 4 mL of culture medium in a 6-well plate for at least 24 hrs prior to use. The cells were treated with α-MSH (1 μM) alone, α-MSH plus plus different concentration of agents for 72 hrs. The cells were washed with cold PBS and then lysed in 100 μL of RIPA buffer containing 1% Nonidet P-40, 0.1% sodium dodecylsulfate, 0.5% sodium deoxycholate, and 2% protease inhibitor at 4° C. Samples were centrifuged at 14,000 rpm for 30 mins at 4° C., and total proteins in the supernatant were separated. 10 μg of denatured proteins were loaded per lane, and separated by 10% SDS-PAGE gel. Proteins were then transferred to Immobilon-P Transfer Membranes (Millipore Co., Bed-ford, Mass.) by semidry transfer. Membranes were incubated with primary antibodies specific for Tyrosinase, tyrosinase-related protein-1 (TRP1), tyrosinase-related protein-2 (TRP2), and microphthalmia-associated transcription factor (MITF). The blots were subsequently washed and incubated with the appropriate secondary antibodies. Immunoreactive protein bands were visualized with enhanced chemiluminescence western blotting detection reagents and quantified using an ODYSSEY Fc Imaging system. The amounts of protein loaded were normalized against a control protein, β-actin.

[2] = test system: tyrosinase-related protein-2 (TRP2); assay: Western blotting of TRP-2 protein level in melan-a cells; type: cell-based, murine; details: α-MSH, 72 hrs, 20 μM
Method: as §1

[3] = test system: microtubule-associated protein light chain 3 (LC-3); assay: Western blot of LC-3 conversion (autophagy marker); type: cell-based, murine; details: melan-a cells, α-MSH and TPA, 72 hrs, 6-CEPN 10 or 20 μM
Method: Melan-a cells (3×10^5 cells/well) were seeded in a 6-well plate with 4 mL RPMI 1640 medium and 10% FBS. Melan-a cells were then transfected with 10 nM siRNA against autophagy-related protein 7 (ATG-7) or with the same concentration of a control siRNA, using HiPerfect Transfection Reagent. After 72 hrs of incubation, cell culture medium was replaced. Cells were then treated for 72 hrs with (1) α-MSH (1 μM) and TPA; (2) α-MSH (1 μM), TPA, and 6-CEPN (10 μM); or (3) α-MSH (1 μM), TPA, and 6-CEPN (20 μM). Total protein of cells was collected as described in the Western blotting in Example 2. The expressions of autophagy related proteins ATG-7 and microtubule-associated protein light chain 3 (LC-3) were analyzed by Western blot. LC-3 was selected because it was widely used to monitor autophagy. LC-3 can convert from a cytosolic form (i.e., LC-3 I) to a lipidated form (i.e., LC-3 II), the latter of which is attached to the autophagosome membrane (Mizushima N, et al., Autophagy, 3(6): 542-545 (2007)). ATG-7 is a required component in the conjugation of other autophagy-related proteins (e.g., the conjugation between ATG-12 and […]), which ultimately leads to the formation of autophagosome (“Autophagy Signaling Pathway,” Cell Signaling Technology, revised online October 2012).

[4] = test system: MelanoDerm (Mel-300-A) epidermal equivalents containing melanocytes; assay: Fontana-Masson silver staining of artificial skin model; type: cell-based, human; details: day 14, rapamycin 2.5 μM, 6-CEPN 10 μM
Method: Epidermal equivalents containing melanocytes (Mel-300-A) were maintained according to the manufacturer's instructions. Mel-300-A tissue was cultured in EPI-100-NMM-113 medium for 14 days. Agents were dissolved in tissue culture medium and changed every other day. The test agents were either (1) rapamycin (2.5 μM), as the positive control in depigmentation, (2) 6-CEPN (10 μM), or (3) 8-CEPQ (5 μM). The concentration of rapamycin used was lower than 6-CEPN and 8-CEPQ, as rapamycin is toxic to cells at higher concentration. Pigmentation of these skin equivalents was compared against treatment of cells with a culture medium only (denoted as “vehicle”). Tissue viability was assessed on day 14 by CCK-8 assay as described in Example 1. On day 14, single tissues were harvested and photographed. The L* parameter was used to evaluate skin lightening or darkening. The lighter the skin, the greater the L* value. ΔL* value was measured by a Chroma Meter CR400 (Konica Minolta) for an evaluation of lightening as a function of time. Three tissues for each treatment were frozen for the Solvable Melanin assay (Bessou-Touya et al., “Chimeric human epidermal reconstructs to study the role of melanocytes and keratinocytes in pigmentation and photoprotection.” Journal of investigative dermatology 111(6):1103-1108 (1998)). Additional tissues were fixed by 10% formanin. For melanin staining in paraffin-embedded tissues, Fontana-Masson silver staining was used as previously detailed (Barbosa et al., “A simple and economical modification of the Masson-Fontana method for staining melanin granules and enterochromaffin cells.” Stain technology 59(4):193-196 (1984)).

O=C1C[C@@H](c2ccc(O)cc2)Oc2cc(O)c(/C=C/c3ccccc3)c(O)c21 [6-CEPN, 6-C-(E-phenylethenyl)-naringenin]
tyrosinase activity (tyrosinase): significant inhibition on tyrosinase activity in a dose-dependent manner
protein level of TRP-1 [1]: significantly suppressed
protein level of TRP-2 [2]: significantly suppressed
conversion of LC-3 I to LC-3 II [3]: increased the conversion of LC-3 I to LC-3 II
melanin content and distribution (Fontana Masson staining) [4]: significant decrease in the melanin content and distribution
thickness of basal layer of tissue [4]: without causing reduction in the thickness of basal layer of tissue
